In ChEMBL document CHEMBL3992485 (Medchemcomm, 2016):
Activity calls are given as the source filed them. The calls are words filed in the database; no cut-off is given here.

Legend:
HeLa [1] = assay: Induction of apoptosis in human HeLa cells assessed as necrotic cells at 0.5 uM after 12 hrs by Annexin-V-FITC/propidium iodide staining based flow cytometry (reference value: 0.35%); assay type: functional
HeLa [2] = assay: Induction of apoptosis in human HeLa cells assessed as viable cells at 0.2 uM after 24 hrs by Annexin-V-FITC/propidium iodide staining based flow cytometry (reference value: 94.4%); assay type: functional; details: read-out: Activity
HeLa [3] = assay: Induction of apoptosis in human HeLa cells assessed as early apoptotic cells at 0.4 uM after 24 hrs by Annexin-V-FITC/propidium iodide staining based flow cytometry (reference value: 2.41%); assay type: functional
HeLa [4] = assay: Inhibition of microtubule polymerization in human HeLa cells assessed as effect on microtubule organization at 0.2 uM after 24 hrs by DAPI staining based confocal microscopic analysis; assay type: cell-based
HeLa [5] = assay: Induction of apoptosis in human HeLa cells assessed as late apoptotic cells at 0.5 uM after 24 hrs by Annexin-V-FITC/propidium iodide staining based flow cytometry (reference value: 2.64%); assay type: functional
HeLa [6] = assay: Cell cycle arrest in human HeLa cells assessed as accumulation at G2/M phase at 0.5 uM after 24 hrs by propidium iodide staining based flow cytometry (reference value: 8.14%); assay type: functional
HeLa [7] = assay: Induction of apoptosis in human HeLa cells assessed as necrotic cells at 0.2 uM after 24 hrs by Annexin-V-FITC/propidium iodide staining based flow cytometry (reference value: 0.084%); assay type: functional
HeLa [8] = assay: Induction of apoptosis in human HeLa cells assessed as early apoptotic cells at 0.5 uM after 36 hrs by Annexin-V-FITC/propidium iodide staining based flow cytometry (reference value: 6.02%); assay type: functional
HeLa [9] = assay: Cell cycle arrest in human HeLa cells assessed as accumulation at G1 phase at 0.1 uM after 24 hrs by propidium iodide staining based flow cytometry (reference value: 85.81%); assay type: functional
A549 = assay: Antiproliferative activity against human A549 cells measured after 24 hrs by MTT assay; assay type: functional, cell-based; details: A549, 24 h
HeLa [10] = assay: Cell cycle arrest in human HeLa cells assessed as accumulation at G1 phase at 0.5 uM after 36 hrs by propidium iodide staining based flow cytometry (reference value: 79.19%); assay type: functional
HeLa [11] = assay: Cell cycle arrest in human HeLa cells assessed as accumulation at S phase at 0.4 uM after 12 hrs by propidium iodide staining based flow cytometry (reference value: 49.41%); assay type: functional
HeLa [12] = assay: Induction of apoptosis in human HeLa cells assessed as late apoptotic cells at 0.5 uM after 12 hrs by Annexin-V-FITC/propidium iodide staining based flow cytometry (reference value: 2.64%); assay type: functional
HeLa [13] = assay: Induction of apoptosis in human HeLa cells assessed as early apoptotic cells at 0.5 uM after 24 hrs by Annexin-V-FITC/propidium iodide staining based flow cytometry (reference value: 6.02%); assay type: functional
HeLa [14] = assay: Induction of apoptosis in human HeLa cells assessed as early apoptotic cells at 0.8 uM after 24 hrs by Annexin-V-FITC/propidium iodide staining based flow cytometry (reference value: 2.41%); assay type: functional
HeLa [15] = assay: Cell cycle arrest in human HeLa cells assessed as accumulation at G1 phase at 0.2 uM after 12 hrs by propidium iodide staining based flow cytometry (reference value: 85.81%); assay type: functional
HeLa [16] = assay: Cell cycle arrest in human HeLa cells assessed as accumulation at G2/M phase at 0.5 uM after 12 hrs by propidium iodide staining based flow cytometry (reference value: 8.14%); assay type: functional
HeLa [17] = assay: Induction of apoptosis in human HeLa cells at 0.5 uM by Annexin-V-FITC/propidium iodide staining based flow cytometry; assay type: functional, cell-based; details: TDE = time-dependent effect
HeLa [18] = assay: Induction of apoptosis in human HeLa cells assessed as viable cells at 0.8 uM after 24 hrs by Annexin-V-FITC/propidium iodide staining based flow cytometry (reference value: 94.4%); assay type: functional; details: read-out: Activity
HeLa [19] = assay: Induction of apoptosis in human HeLa cells assessed as viable cells at 0.1 uM after 24 hrs by Annexin-V-FITC/propidium iodide staining based flow cytometry (reference value: 94.4%); assay type: functional; details: read-out: Activity
MCF7 = assay: Antiproliferative activity against human MCF7 cells measured after 24 hrs by MTT assay; assay type: functional, cell-based; details: MCF7, 24 h
HeLa [20] = assay: Cell cycle arrest in human HeLa cells assessed as accumulation at G1 phase at 0.5 uM after 24 hrs by propidium iodide staining based flow cytometry (reference value: 79.19%); assay type: functional
HeLa [21] = assay: Induction of apoptosis in human HeLa cells assessed as necrotic cells at 0.8 uM after 24 hrs by Annexin-V-FITC/propidium iodide staining based flow cytometry (reference value: 0.084%); assay type: functional
HeLa [22] = assay: Inhibition of microtubule polymerization in human HeLa cells assessed as abnormal chromatin distribution at 0.2 uM after 24 hrs by DAPI staining based confocal microscopic analysis; assay type: cell-based
HeLa [23] = assay: Induction of apoptosis in human HeLa cells assessed as late apoptotic cells at 0.1 uM after 24 hrs by Annexin-V-FITC/propidium iodide staining based flow cytometry (reference value: 3.1%); assay type: functional
HeLa [24] = assay: Induction of apoptosis in human HeLa cells assessed as viable cells at 0.5 uM after 12 hrs by Annexin-V-FITC/propidium iodide staining based flow cytometry (reference value: 91%); assay type: functional; details: read-out: Activity
HeLa [25] = assay: Cell cycle arrest in human HeLa cells assessed as accumulation at S phase at 0.2 uM after 12 hrs by propidium iodide staining based flow cytometry (reference value: 49.41%); assay type: functional
HeLa [26] = assay: Induction of apoptosis in human HeLa cells assessed as viable cells at 0.5 uM after 36 hrs by Annexin-V-FITC/propidium iodide staining based flow cytometry (reference value: 91%); assay type: functional; details: read-out: Activity
HeLa [27] = assay: Antiproliferative activity against human HeLa cells measured after 24 hrs by MTT assay; assay type: functional, cell-based
HeLa [28] = assay: Induction of apoptosis in human HeLa cells assessed as early apoptotic cells at 0.1 uM after 24 hrs by Annexin-V-FITC/propidium iodide staining based flow cytometry (reference value: 2.41%); assay type: functional
HeLa [29] = assay: Cell cycle arrest in human HeLa cells assessed as accumulation at G2/M phase at 0.1 uM after 24 hrs by propidium iodide staining based flow cytometry (reference value: 2.15%); assay type: functional
HeLa [30] = assay: Cell cycle arrest in human HeLa cells assessed as accumulation at S phase at 0.8 uM after 12 hrs by propidium iodide staining based flow cytometry (reference value: 49.41%); assay type: functional
HeLa [31] = assay: Induction of apoptosis in human HeLa cells assessed as early apoptotic cells at 0.5 uM after 12 hrs by Annexin-V-FITC/propidium iodide staining based flow cytometry (reference value: 6.02%); assay type: functional
HeLa [32] = assay: Induction of apoptosis in human HeLa cells assessed as late apoptotic cells at 0.2 uM after 24 hrs by Annexin-V-FITC/propidium iodide staining based flow cytometry (reference value: 3.1%); assay type: functional
HeLa [33] = assay: Cell cycle arrest in human HeLa cells assessed as accumulation at G2/M phase at 0.5 uM after 36 hrs by propidium iodide staining based flow cytometry (reference value: 8.14%); assay type: functional
HeLa [34] = assay: Induction of apoptosis in human HeLa cells assessed as necrotic cells at 0.1 uM after 24 hrs by Annexin-V-FITC/propidium iodide staining based flow cytometry (reference value: 0.084%); assay type: functional

SMILES: CCn1cc(C(=O)N2CCN(S(=O)(=O)c3c(C(C)C)cc(C(C)C)cc3C(C)C)CC2)c2ccccc21
- Activity (HeLa [1]): 0.03%
- viability at 0.2 µM (HeLa [2]): 71%
- Activity (HeLa [3]): 23.1%
- inhibition (HeLa [4]): Active
- Activity (HeLa [5]): 6.84%
- Activity (HeLa [6]): 54.57%
- Activity (HeLa [7]): 0.098%
- Activity (HeLa [8]): 25.3%
- Activity (HeLa [9]): 54.97%
- IC50 (A549): 590 nM
- Activity (HeLa [10]): 1.19%
- Activity (HeLa [11]): 40.08%
- Activity (HeLa [12]): 3.97%
- Activity (HeLa [13]): 20.1%
- Activity (HeLa [14]): 32.6%
- Activity (HeLa [15]): 31.86%
- Activity (HeLa [16]): 18.43%
- Activity (HeLa [17]): Tde
- viability at 0.8 µM (HeLa [18]): 44%
- viability at 0.1 µM (HeLa [19]): 85.1%
- IC50 (MCF7): 350 nM
- Activity (HeLa [20]): 5.23%
- Activity (HeLa [21]): 1.05%
- inhibition (HeLa [22]): Active
- Activity (HeLa [23]): 5.71%
- viability at 0.5 µM (HeLa [24]): 87.9%
- Activity (HeLa [25]): 61.18%
- viability at 0.5 µM (HeLa [26]): 53.1%
- IC50 (HeLa [27]): 240 nM
- Activity (HeLa [28]): 9%
- Activity (HeLa [29]): 15.09%
- Activity (HeLa [30]): 53.83%
- Activity (HeLa [31]): 8.12%
- Activity (HeLa [32]): 7.24%
- Activity (HeLa [33]): 65.29%
- Activity (HeLa [34]): 0.141%
